Experimental data published in patent US11865098B1, “Methods and compositions for treating excessive sleepiness” (Axsome Malta Ltd., priority 2017, dated 2024).

Test system: patients with narcolepsy type 1 or type 2
Test: Safety and tolerability (TEAEs, discontinuations), 12-week phase 3 study in narcolepsy
Assay type: in vivo, human
Conditions: for Anxiety, incidence % / Anxiety, incidence n / Any TEAE, incidence % / Any TEAE, incidence n / Constipation, incidence % / Constipation, incidence n / Decreased appetite, incidence % / Decreased appetite, incidence n / Diarrhea, incidence % / Diarrhea, incidence n / Discontinuations due to TEAEs, incidence % / Discontinuations due to TEAEs, incidence n / Dizziness, incidence % / Dizziness, incidence n / Dry mouth, incidence % / Dry mouth, incidence n / Dyspepsia, incidence % / Dyspepsia, incidence n / Fatigue, incidence n / Headache, incidence % / Headache, incidence n / Heart rate increased, incidence n / Influenza, incidence % / Influenza, incidence n / Insomnia, incidence % / Insomnia, incidence n / Nasopharyngitis, incidence % / Nasopharyngitis, incidence n / Nausea, incidence % / Nausea, incidence n / Serious TEAEs, incidence n / Upper respiratory tract infection, incidence % / Upper respiratory tract infection, incidence n / Weight Increased, incidence % / Weight Increased, incidence n / Weight decreased, incidence % / Weight decreased, incidence n / Fatigue, incidence % / Serious TEAEs, incidence % / Heart rate increased, incidence %: safety population
Procedure: The study was a 12-week, double-blind, randomized, placebo-controlled, parallel-group study. Patients were randomized (1:1:1:1) to receive placebo or APC 75, 150, or 300 mg; randomization was stratified by the presence or absence of cataplexy.
Co-primary endpoints were change from baseline to week 12 in MWT mean sleep latency and ESS score. The key secondary endpoint was the percentage of patients who reported improvement on the Patient Global Impression of Change (PGI-C) (Guy, ECDEU assessment manual for psychopharmacology, revised. US Department of Health, Education, and Welfare publication (ADM 76-338). Rockville, MD: National Institute of Mental Health; 1976) at week 12. Other secondary and exploratory endpoints included changes on function and quality-of-life and changes in the number of cataplexy attacks per week. Safety evaluation included adverse events, laboratory tests, and vital signs.

## NC(=O)OC[C@H](N)Cc1ccccc1 [JZP-110, (R)-2-amino-3-phenylpropyl carbamate]
75 mg
  Discontinuation rate: 16.9%
  Anxiety, incidence %: (1.7) %
  Anxiety, incidence n: 1
  Any TEAE, incidence %: (57.6) %
  Any TEAE, incidence n: 34
  Constipation, incidence %: (5.1) %
  Constipation, incidence n: 3
  Decreased appetite, incidence %: (8.5) %
  Decreased appetite, incidence n: 5
  Diarrhea, incidence %: (3.4) %
  Diarrhea, incidence n: 2
  Discontinuations due to TEAEs, incidence %: (1.7) %
  Discontinuations due to TEAEs, incidence n: 1
  Dizziness, incidence %: (3.4) %
  Dizziness, incidence n: 2
  Dry mouth, incidence %: (5.1) %
  Dry mouth, incidence n: 3
  Dyspepsia, incidence %: (1.7) %
  Dyspepsia, incidence n: 1
  Fatigue, incidence n: 0
  Headache, incidence %: (10.2) %
  Headache, incidence n: 6
  Heart rate increased, incidence n: 0
  Influenza, incidence %: (3.4) %
  Influenza, incidence n: 2
  Insomnia, incidence %: (3.4) %
  Insomnia, incidence n: 2
  Nasopharyngitis, incidence %: (8.5) %
  Nasopharyngitis, incidence n: 5
  Nausea, incidence %: (5.1) %
  Nausea, incidence n: 3
  Serious TEAEs, incidence n: 0
  Upper respiratory tract infection, incidence %: (1.7) %
  Upper respiratory tract infection, incidence n: 1
  Weight Increased, incidence %: (3.4) %
  Weight Increased, incidence n: 2
  Weight decreased, incidence %: (1.7) %
  Weight decreased, incidence n: 1
150 mg
  Discontinuation rate: 13.6%
  Anxiety, incidence %: (5.1) %
  Anxiety, incidence n: 3
  Any TEAE, incidence %: (79.7) %
  Any TEAE, incidence n: 47
  Constipation, incidence %: (1.7) %
  Constipation, incidence n: 1
  Decreased appetite, incidence %: (8.5) %
  Decreased appetite, incidence n: 5
  Diarrhea, incidence %: (5.1) %
  Diarrhea, incidence n: 3
  Discontinuations due to TEAEs, incidence %: (5.1) %
  Discontinuations due to TEAEs, incidence n: 3
  Dizziness, incidence %: (1.7) %
  Dizziness, incidence n: 1
  Dry mouth, incidence %: (6.8) %
  Dry mouth, incidence n: 4
  Dyspepsia, incidence %: (3.4) %
  Dyspepsia, incidence n: 2
  Fatigue, incidence %: (3.4) %
  Fatigue, incidence n: 2
  Headache, incidence %: (23.7) %
  Headache, incidence n: 14
  Heart rate increased, incidence n: 0
  Influenza, incidence %: (1.7) %
  Influenza, incidence n: 1
  Insomnia, incidence n: 0
  Nasopharyngitis, incidence %: (13.6) %
  Nasopharyngitis, incidence n: 8
  Nausea, incidence %: (10.2) %
  Nausea, incidence n: 6
  Serious TEAEs, incidence %: (1.7) %
  Serious TEAEs, incidence n: 1
  Upper respiratory tract infection, incidence %: (6.8) %
  Upper respiratory tract infection, incidence n: 4
  Weight Increased, incidence n: 0
  Weight decreased, incidence %: (1.7) %
  Weight decreased, incidence n: 1
150 mg, one patient, deemed not related by the investigator
  Serious TEAEs (events): 2 serious TEAEs of non-cardiac chest pain and anxiety
300 mg
  Discontinuation rate: 27.1%
  Anxiety, incidence %: (8.5) %
  Anxiety, incidence n: 5
  Any TEAE, incidence %: (67.8) %
  Any TEAE, incidence n: 40
  Constipation, incidence n: 0
  Decreased appetite, incidence %: (15.3) %
  Decreased appetite, incidence n: 9
  Diarrhea, incidence %: (5.1) %
  Diarrhea, incidence n: 3
  Discontinuations due to TEAEs, incidence %: (8.5) %
  Discontinuations due to TEAEs, incidence n: 5
  Dizziness, incidence %: (5.1) %
  Dizziness, incidence n: 3
  Dry mouth, incidence %: (10.2) %
  Dry mouth, incidence n: 6
  Dyspepsia, incidence %: (5.1) %
  Dyspepsia, incidence n: 3
  Fatigue, incidence %: (5.1) %
  Fatigue, incidence n: 3
  Headache, incidence %: (30.5) %
  Headache, incidence n: 18
  Heart rate increased, incidence %: (6.8) %
  Heart rate increased, incidence n: 4
  Influenza, incidence %: (1.7) %
  Influenza, incidence n: 1
  Insomnia, incidence %: (5.1) %
  Insomnia, incidence n: 3
  Nasopharyngitis, incidence %: (5.1) %
  Nasopharyngitis, incidence n: 3
  Nausea, incidence %: (16.9) %
  Nausea, incidence n: 10
  Serious TEAEs, incidence n: 0
  Upper respiratory tract infection, incidence n: 0
  Weight Increased, incidence %: (1.7) %
  Weight Increased, incidence n: 1
  Weight decreased, incidence %: (5.1) %
  Weight decreased, incidence n: 3
300 mg, n=5
  Discontinuation due to adverse events: 8.5%
150 and 300 mg groups
  Discontinuations due to TEAEs compared with placebo: greater than placebo
All JZP-110
  Anxiety, incidence %: (5.1) %
  Anxiety, incidence n: 9
  Any TEAE, incidence %: (68.4) %
  Any TEAE, incidence n: 121
  Constipation, incidence %: (2.3) %
  Constipation, incidence n: 4
  Decreased appetite, incidence %: (10.7) %
  Decreased appetite, incidence n: 19
  Diarrhea, incidence %: (4.5) %
  Diarrhea, incidence n: 8
  Discontinuations due to TEAEs, incidence %: (5.1) %
  Discontinuations due to TEAEs, incidence n: 9
  Dizziness, incidence %: (3.4) %
  Dizziness, incidence n: 6
  Dry mouth, incidence %: (7.3) %
  Dry mouth, incidence n: 13
  Dyspepsia, incidence %: (3.4) %
  Dyspepsia, incidence n: 6
  Fatigue, incidence %: (2.8) %
  Fatigue, incidence n: 5
  Headache, incidence %: (21.5) %
  Headache, incidence n: 38
  Heart rate increased, incidence %: (2.3) %
  Heart rate increased, incidence n: 4
  Influenza, incidence %: (2.3) %
  Influenza, incidence n: 4
  Insomnia, incidence %: (2.8) %
  Insomnia, incidence n: 5
  Nasopharyngitis, incidence %: (9.0) %
  Nasopharyngitis, incidence n: 16
  Nausea, incidence %: (10.7) %
  Nausea, incidence n: 19
  Serious TEAEs, incidence %: (0.6) %
  Serious TEAEs, incidence n: 1
  Upper respiratory tract infection, incidence %: (2.8) %
  Upper respiratory tract infection, incidence n: 5
  Weight Increased, incidence %: (1.7) %
  Weight Increased, incidence n: 3
  Weight decreased, incidence %: (2.8) %
  Weight decreased, incidence n: 5
